In assay [1] the target is human FPR2 (Homo sapiens (Human), UniProt P25090). Briefly: FPR2 cyclic adenosine monophosphate (cAMP) assay. The format is cell-based. The following applies: CHO cells overexpressing human FPR2; forskolin 5 μM, IBMX 200 μM; inhibition of cAMP production, HTRF; read-out: hFPR2 cAMP2 EC50. The text has this: (§1) N-formyl peptide receptors (FPRs) are a family of chemo attractant receptors that facilitate leukocyte response during inflammation. FPRs belong to the seven-transmembrane G protein-coupled receptor superfamily and are linked to inhibitory G-proteins (Gi). Three family members (FPR1, FPR2 and FPR3) have been identified in humans and are predominantly found in myeloid cells with varied distribution and have also been reported in multiple organs and tissues. After agonist binding, the FPRs activate a multitude of physiological pathways, such as intra cellular signaling transduction, Ca^21 mobilization and transcription. The family interacts with a diverse set of ligands that includes proteins, polypeptides and fatty acid metabolites which activate both pro-inflammatory and pro-resolution downstream responses. FPR2 and FPR1 Cyclic Adenosine Monophosphate (cAMP) Assays were used to measure the activity of the compounds in this patent.
(§2) FPR2 and FPR1 Cyclic Adenosine Monophosphate (cAMP) Assays. A mixture of forskolin (5 μM final for FPR2 or 10 μM final for FPR1) and IBMX (200 μM final) were added to 384-well Proxiplates (Perkin-Elmer) pre-dotted with test compounds in DMSO (1% final) at final concentrations in the range of 0.020 nM to 100 μM. Chinese Hamster Ovary cells (CHO) overexpressing human FPR1 or human FPR2 receptors were cultured in F-12 (Ham's) medium supplemented with 10% qualified FBS, 250 μg/ml zeocin and 300 μg/ml hygromycin (Life Technologies). Reactions were initiated by adding 2,000 human FPR2 cells per well or 4,000 human FPR1 cells per well in Dulbecco's PBS (with calcium and magnesium) (Life Technologies) supplemented with 0.1% BSA (Perkin-Elmer). The reaction mixtures were incubated for 30 min at room temperature. The level of intracellular cAMP was determined using the HTRF HiRange cAMP assay reagent kit (Cisbio) according to manufacturer's instruction. Solutions of cryptate conjugated anti-cAMP and d2 flurorophore-labelled cAMP were made in a supplied lysis buffer separately. Upon completion of the reaction, the cells were lysed with equal volume of the d2-cAMP solution and anti-cAMP solution. After a 1-h room temperature incubation, time-resolved fluorescence intensity was measured using the Envision (Perkin-Elmer) at 400 nm excitation and dual emission at 590 nm and 665 nm. A calibration curve was constructed with an external cAMP standard at concentrations ranging from 1 μM to 0.1 μM by plotting the fluorescent intensity ratio from 665 nm emission to the intensity from the 590 nm emission against cAMP concentrations. The potency and activity of a compound to inhibit cAMP production was then determined by fitting to a 4-parametric logistic equation from a plot of cAMP level versus compound concentrations.
On the technique in general: cAMP levels reflect the balance of adenylyl cyclase and phosphodiesterase activity.

For assay [2], the target named is human FPR1 (Homo sapiens (Human), UniProt P21462). Briefly: FPR1 cyclic adenosine monophosphate (cAMP) assay. The format is cell-based. To be noted: CHO cells overexpressing human FPR1; forskolin 10 μM, IBMX 200 μM; inhibition of cAMP production, HTRF; read-out: hFPR1 cAMP EC50.
Description: as §1, §2

Sequence of human FPR2 (P25090 whole entry): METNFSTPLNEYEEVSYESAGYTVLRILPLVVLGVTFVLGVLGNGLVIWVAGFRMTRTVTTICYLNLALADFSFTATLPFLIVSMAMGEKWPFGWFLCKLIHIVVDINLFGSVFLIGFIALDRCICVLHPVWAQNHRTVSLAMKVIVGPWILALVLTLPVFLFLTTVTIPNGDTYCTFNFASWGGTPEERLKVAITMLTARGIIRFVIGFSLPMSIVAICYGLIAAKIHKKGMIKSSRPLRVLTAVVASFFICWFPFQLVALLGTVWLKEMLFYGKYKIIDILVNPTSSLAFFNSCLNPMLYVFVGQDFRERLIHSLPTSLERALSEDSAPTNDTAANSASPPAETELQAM
Sequence of human FPR1 (P21462 whole entry): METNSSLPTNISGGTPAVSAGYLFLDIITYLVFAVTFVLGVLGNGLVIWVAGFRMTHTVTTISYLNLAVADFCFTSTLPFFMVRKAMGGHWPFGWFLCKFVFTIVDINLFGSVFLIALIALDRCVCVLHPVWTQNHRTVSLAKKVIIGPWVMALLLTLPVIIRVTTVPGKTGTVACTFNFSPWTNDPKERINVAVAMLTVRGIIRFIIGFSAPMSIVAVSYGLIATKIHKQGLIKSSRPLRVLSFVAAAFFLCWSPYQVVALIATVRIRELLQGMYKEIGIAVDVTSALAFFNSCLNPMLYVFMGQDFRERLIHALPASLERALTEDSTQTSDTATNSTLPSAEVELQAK

In general, EC50 refers to the concentration needed to bring the measured effect to its halfway point. For the compound `COc1cc(F)c([C@H]2[C@H](NC(=O)N[C@H]3CC[C@H](C(F)F)CC3)C(=O)N(c3ncccc3OC(C)C)[C@H]2C)c(F)c1` [Example 51], the EC50 in assay [1] is 12 nM; in assay [2] it was 77 nM.

For the compound `COc1cc(F)c([C@@H]2CN(c3ncccc3C(F)(F)F)C(=O)[C@H]2NC(=O)NC2CCc3cc(OC)ccc3C2)c(F)c1` (stereo partly drawn) [Example 64], the EC50 was 53 nM in assay [1] and 54 nM in assay [2].

`COc1cc(F)c([C@@H]2CN(c3ncccc3C(F)(F)F)C(=O)[C@H]2NC(=O)NC2COc3cc(OC)ccc3C2)c(F)c1` (stereo partly drawn) [Example 33]: the EC50 in assay [1] was 4 nM; in assay [2] it was 4.2 nM.

For the compound `COc1cc(F)c([C@@H]2CN(c3cccn(C(F)F)c3=O)C(=O)[C@H]2NC(=O)NC2CCc3cc(OC)ccc3C2)c(F)c1` (single isomer, unassigned) [Example 94], the EC50 was found to be 1.6 nM in assay [1] and 1.2 nM in assay [2].

As to `COc1cc(F)c([C@@H]2CN(c3nccc(N4CCN(S(C)(=O)=O)CC4)c3C(F)(F)F)C(=O)[C@H]2NC(=O)N[C@H]2CC[C@H](C(F)F)CC2)c(F)c1` [Example 88], the EC50 was 9.1 nM in assay [1] and > 10000 nM in assay [2].

As for `COc1ccc([C@H]2C[C@@H]2NC(=O)N[C@@H]2C(=O)N(c3ncccc3C(F)(F)F)C[C@H]2c2c(F)cc(OC)cc2F)cc1` [Example 35], the EC50 in assay [1] is 4.5 nM; in assay [2] it was 62 nM.

In the case of `COc1cc(F)c([C@@H]2CN(c3ncccc3C(F)(F)F)C(=O)[C@H]2NC(=O)NC2CCc3ccccc3C2)c(F)c1` (stereo partly drawn) [Example 24], the EC50 in assay [1] worked out at 2.8 nM; in assay [2] it was 18 nM.

In the case of `COc1cc(F)c([C@H]2[C@H](NC(=O)N[C@H]3CC[C@H](C(F)F)CC3)C(=O)N(c3cccn(CCO)c3=O)[C@H]2C)c(F)c1` [Example 71], the EC50 in assay [1] was determined as 54 nM; in assay [2], 1100 nM.

In the case of `COc1cc(F)c([C@@H]2CN(c3nccc(N4CCC(C)(O)C4)c3C(F)(F)F)C(=O)[C@H]2NC(=O)N[C@H]2CC[C@H](C(F)F)CC2)c(F)c1` (single isomer, unassigned) [Example 91], the EC50 in assay [1] came to 7.7 nM; in assay [2], 780 nM.

As to `COc1cc(F)c([C@@H]2CN(c3cccn(C(F)F)c3=O)C(=O)[C@H]2NC(=O)NC2CCc3cc(OC)ccc3C2)c(F)c1` (single isomer, unassigned) [Example 95], the EC50 came to 4 nM in assay [1] and 5.3 nM in assay [2].

For the compound `COCCn1cccc(N2C[C@@H](c3c(F)cc(OC)cc3F)[C@H](NC(=O)NC3CCc4cc(Cl)ccc4C3)C2=O)c1=O` (stereo partly drawn) [Example 20], the results for the EC50 in assay [1] and in assay [2] were 2.6 nM and 38.9 nM, respectively.

`COCCn1cccc(N2C[C@@H](c3c(F)cc(OC)cc3F)[C@H](NC(=O)NC3CCc4cc(OC)ccc4C3(C)C)C2=O)c1=O` (stereo partly drawn) [Example 54]: the EC50 was 19 nM in assay [1] and 8.8 nM in assay [2].

For `COc1cc(F)c([C@H]2[C@H](NC(=O)NC3CCc4cc(OC)ccc4C3)C(=O)N(c3cccn(CCO)c3=O)[C@H]2C)c(F)c1` (single isomer, unassigned) [Example 90], the EC50 in assay [1] amounted to 4 nM; in assay [2], 3.7 nM.

Regarding `COCCn1cccc(N2C(=O)[C@@H](NC(=O)N[C@H]3CC[C@H](C(F)F)CC3)[C@H](c3c(F)cc(OC)cc3F)[C@@H]2C)c1=O` [Example 105], the values for the EC50 in assay [1] and in assay [2] were 17 nM and 1200 nM, respectively.

`COc1cc(F)c([C@@H]2CN(c3nccc(N4CCOCC4)c3C(F)(F)F)C(=O)C2NC(=O)N[C@H]2CC[C@H](C(F)F)CC2)c(F)c1` (stereo partly drawn) [Example 1, 1-((3S,4R)-4-(2,6-Difluoro-4-methoxyphenyl)-1-(4-morpholino-3-(trifluoromethyl)pyridin-2-yl)-2-oxopyrrolidin-3-yl)-3-((1r,4S)-4-(difluoromethyl)cyclohexyl) urea]: the results for the EC50 in assay [1] and in assay [2] were 14.8 nM and 6800 nM, respectively.

`CCn1cccc(N2C[C@@H](c3c(F)cc(OC)cc3F)[C@H](NC(=O)NC3CCc4cc(OC)ccc4C3(C)C)C2=O)c1=O` (stereo partly drawn) [Example 61]: the EC50 in assay [1] was determined as 33 nM; in assay [2], 17 nM.

`CCn1cccc(N2C[C@@H](c3c(F)cc(OC)cc3F)[C@H](NC(=O)NC3CCc4cc(OC)ccc4C3(C)C)C2=O)c1=O` (stereo partly drawn) [Example 52]: the EC50 in assay [1] stood at 13 nM; in assay [2] it was 593 nM.

As to `COCC(CO)n1cccc(N2C[C@@H](c3c(F)cc(OC)cc3F)[C@H](NC(=O)NC3CCc4cc(OC)ccc4C3)C2=O)c1=O` (stereo partly drawn) [Example 82], the EC50 came out at 9.9 nM in assay [1] and 0.8 nM in assay [2].

For `COc1cc(F)c([C@@H]2CN(c3c(OC)ccn(C)c3=O)C(=O)[C@H]2NC(=O)NC2CCc3cc(Cl)ccc3C2)c(F)c1` (stereo partly drawn) [Example 8], the values for the EC50 in assay [1] and in assay [2] were 0.6 nM and 0.5 nM, respectively.

Consider `CCn1nccc(N2C[C@@H](c3c(F)cc(OC)cc3F)[C@H](NC(=O)NC3CCc4cc(OC)ccc4C3)C2=O)c1=O` (single isomer, unassigned) [Example 86], for which the figures for the EC50 in assay [1] and in assay [2] were 1.4 nM and 0.3 nM, respectively.

In the case of `COCCn1cccc(N2C[C@@H](c3c(F)cc(OC)cc3F)[C@H](NC(=O)NC3CCc4cc(OC)ccc4C3(C)C)C2=O)c1=O` (stereo partly drawn) [Example 45], the EC50 is 6.7 nM in assay [1] and 562 nM in assay [2].

In the case of `COc1cc(F)c([C@@H]2CN(c3nccc(NC4CCOC4)c3C(F)(F)F)C(=O)[C@H]2NC(=O)N[C@H]2CC[C@H](C(F)F)CC2)c(F)c1` (single isomer, unassigned) [Example 100], the results for the EC50 in assay [1] and in assay [2] were 9 nM and > 10000 nM, respectively.

As to `COc1cc(F)c([C@@H]2CN(c3c(C)ccn(CCO)c3=O)C(=O)[C@H]2NC(=O)NC2CCc3cc(OC)ccc3C2)c(F)c1` (single isomer, unassigned) [Example 83], the EC50 in assay [1] is 1 nM; in assay [2] it was 12 nM.

Take `COc1cc(F)c([C@@H]2CN(c3ncccc3C(F)(F)F)C(=O)[C@H]2NC(=O)NC2CCc3cc(Cl)ccc3C2)c(F)c1` (stereo partly drawn) [Example 43]: the figures for the EC50 in assay [1] and in assay [2] were 6 nM and 7.1 nM, respectively.

As to `COCCn1cccc(N2C[C@@H](c3ccc(OC)cc3)[C@H](NC(=O)NC3CCc4cc(OC)ccc4C3)C2=O)c1=O` (stereo partly drawn) [Example 11], the EC50 turned out to be 0.8 nM in assay [1] and 0.1 nM in assay [2].

As for `COc1cc(F)c([C@@H]2CN(c3nccc(N4CCC(C)(O)C4)c3C(F)(F)F)C(=O)[C@H]2NC(=O)N[C@H]2CC[C@H](C(F)F)CC2)c(F)c1` (single isomer, unassigned) [Example 92], the EC50 was 44 nM in assay [1] and > 5000 nM in assay [2].

Regarding `COc1cc(F)c([C@@H]2CN(c3nccc(N4C[C@@H](C)N(C)[C@@H](C)C4)c3C(F)(F)F)C(=O)[C@H]2NC(=O)N[C@H]2CC[C@H](C(F)F)CC2)c(F)c1` [Example 25], the EC50 in assay [1] amounted to 2.8 nM; in assay [2], 1630 nM.

In the case of `COCCn1ccc(C)c(N2C[C@@H](c3c(F)cc(OC)cc3F)[C@H](NC(=O)NC3CCc4cc(Cl)ccc4C3)C2=O)c1=O` (stereo partly drawn) [Example 22], the results for the EC50 in assay [1] and in assay [2] were 2.7 nM and 2.1 nM, respectively.

As to `COCCn1nccc(N2C[C@@H](c3c(F)cc(OC)cc3F)[C@H](NC(=O)NC3CCc4cc(OC)ccc4C3)C2=O)c1=O` (stereo partly drawn) [Example 85], the EC50 in assay [1] amounted to 4.4 nM; in assay [2], 7.6 nM.

Turning to `COCCn1cccc(N2C(=O)[C@@H](NC(=O)NC3CCc4cc(OC)ccc4C3)[C@H](c3c(F)cc(OC)cc3F)[C@@H]2C)c1=O` (stereo partly drawn) [Example 26], in assay [1], the EC50 was found to be 2.8 nM.

For the compound `CCn1cccc(N2C[C@@H](c3ccc(OC)cc3)[C@H](NC(=O)NC3CCc4cc(OC)ccc4C3)C2=O)c1=O` (stereo partly drawn) [Example 13], in assay [1], the EC50 was determined as 1.3 nM.

Turning to `COCCn1cccc(N2C[C@@H](c3ccc(OC)cc3)[C@H](NC(=O)NC3CCc4cc(Cl)ccc4C3)C2=O)c1=O` (stereo partly drawn) [Example 5], the EC50 in assay [1] is 0.2 nM.

On to `COc1cc(F)c([C@@H]2CN(c3cccn(CC(O)C(F)(F)F)c3=O)C(=O)[C@H]2NC(=O)NC2CCc3cc(OC)ccc3C2)c(F)c1` (stereo partly drawn) [Example 79], for which, in assay [1], the EC50 came to 7.3 nM.

On to `COc1cc(F)c([C@@H]2CN(c3cccn(CC(O)C(F)(F)F)c3=O)C(=O)[C@H]2NC(=O)NC2CCc3cc(OC)ccc3C2)c(F)c1` (single isomer, unassigned) [Example 77], for which the EC50 in assay [1] was 15 nM.

(Values after patent US20230303513A1, “OXOPYRROLIDINE UREA FPR2 AGONISTS” (BRISTOL-MYERS SQUIBB COMPANY, priority 2020, published 2023).)
